Test results taken from ChEMBL document CHEMBL6182925 (J Med Chem, 2025).
Converted amounts (≈) assume the structure as drawn.

Legend:
BaF3 [1] = test: cells; conditions: Mus musculus, BaF3, 72 h
BaF3 [2] = test: cells; conditions: Mus musculus, BaF3, 72 h; remark: listed apart in the source
cells = conditions: Mus musculus, BaF3/TRP-Met, 72 h
BaF3 [3] = test: cells; conditions: Mus musculus, BaF3, 72 h; remark: listed apart in the source
BaF3 [4] = test: cells; conditions: Mus musculus, BaF3, 72 h; remark: listed apart in the source
[5] = Kinetic solubility of compound at pH 4.5; type: physicochemical; conditions: buffer, read-out: Kinetic_solubility
BaF3 [6] = test: cells; conditions: Mus musculus, BaF3, 72 h; remark: listed apart in the source
BaF3 [7] = test: cells; conditions: Mus musculus, BaF3, 72 h; remark: listed apart in the source
BaF3 [8] = test: cells; conditions: Mus musculus, BaF3, 72 h; remark: listed apart in the source
BaF3 [9] = test: cells; conditions: Mus musculus, BaF3, 72 h; remark: listed apart in the source
BaF3 [10] = test: cells; conditions: Mus musculus, BaF3, 72 h; remark: listed apart in the source
BaF3 [11] = test: cells; conditions: Mus musculus, BaF3, 72 h; remark: listed apart in the source
[12] = Kinetic solubility of compound at pH 2; type: physicochemical; conditions: buffer, read-out: Kinetic_solubility
BaF3 [13] = test: cells; conditions: Mus musculus, BaF3, 72 h; remark: listed apart in the source
BaF3 [14] = test: cells; conditions: Mus musculus, BaF3, 72 h; remark: listed apart in the source
BaF3 [15] = test: cells; conditions: Mus musculus, BaF3, 72 h; remark: listed apart in the source
BaF3 [16] = test: cells; conditions: Mus musculus, BaF3, 72 h; remark: listed apart in the source
[17] = biological target: 5-hydroxytryptamine receptor 1B (Homo sapiens) (UniProt P28222); test: Inhibition of 5-HT1B receptor (unknown origin) at 10 uM by CEREP analysis relative to control
[18] = biological target: 5-hydroxytryptamine receptor 2B (Homo sapiens) (UniProt P41595); test: Inhibition of 5-HT2B receptor (unknown origin) at 10 uM by CEREP analysis relative to control
Homo sapiens = species: Homo sapiens; test: Inhibition of sodium channel site 2 (unknown origin) at 10 uM by CEREP analysis relative to control
[19] = biological target: 3',5'-cyclic-AMP phosphodiesterase 4D (Homo sapiens) (UniProt Q08499); test: Inhibition of PDE4D2 (unknown origin) at 10 uM by CEREP analysis relative to control
L-type calcium channel = L-type calcium channel (Homo sapiens, UniProt O60840+Q01668+Q13698+Q13936); test: Inhibition of Calcium channel L-type (unknown origin) at 10 uM by CEREP analysis relative to control; type: protein assay
hERG = hERG (Homo sapiens, UniProt Q12809); test: Inhibition of hERG at 10 uM by CEREP analysis relative to control; type: toxicity
[20] = biological target: T1, Alpha-2A adrenergic receptor (Homo sapiens) (UniProt P08913); test: Inhibition of alpha 2A adrenergic receptor (unknown origin) at 10 uM by CEREP analysis relative to control
T1 sequence (whole entry): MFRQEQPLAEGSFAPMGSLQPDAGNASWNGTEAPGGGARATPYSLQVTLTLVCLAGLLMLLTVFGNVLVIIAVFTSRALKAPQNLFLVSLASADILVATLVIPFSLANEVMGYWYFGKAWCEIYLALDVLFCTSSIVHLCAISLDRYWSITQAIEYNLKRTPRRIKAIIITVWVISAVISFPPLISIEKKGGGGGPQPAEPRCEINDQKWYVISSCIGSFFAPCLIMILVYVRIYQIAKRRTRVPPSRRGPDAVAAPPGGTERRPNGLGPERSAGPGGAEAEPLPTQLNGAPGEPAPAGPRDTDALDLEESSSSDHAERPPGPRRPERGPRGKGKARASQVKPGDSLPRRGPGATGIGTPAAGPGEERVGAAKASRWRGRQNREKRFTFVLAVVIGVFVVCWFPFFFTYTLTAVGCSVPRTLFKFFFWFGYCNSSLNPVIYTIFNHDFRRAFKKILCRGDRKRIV

[21] = Oral bioavailability in mouse; type: ADME, organism-based; conditions: in vivo
[22] = Clearance in mouse; type: ADME, organism-based; conditions: in vivo
[23] = biological target: Sodium-dependent serotonin transporter (Homo sapiens) (UniProt P31645); test: Inhibition of SERT (unknown origin) at 10 uM by CEREP analysis relative to control
[24] = biological target: cGMP-inhibited 3',5'-cyclic phosphodiesterase 3A (Homo sapiens) (UniProt Q14432); test: Inhibition of PDE3A (unknown origin) at 10 uM by CEREP analysis relative to control
[25] = biological target: T2, Muscarinic acetylcholine receptor M2 (Homo sapiens) (UniProt P08172); test: Inhibition of muscarinic M2 receptor (unknown origin) at 10 uM by CEREP analysis relative to control
T2 sequence (whole entry): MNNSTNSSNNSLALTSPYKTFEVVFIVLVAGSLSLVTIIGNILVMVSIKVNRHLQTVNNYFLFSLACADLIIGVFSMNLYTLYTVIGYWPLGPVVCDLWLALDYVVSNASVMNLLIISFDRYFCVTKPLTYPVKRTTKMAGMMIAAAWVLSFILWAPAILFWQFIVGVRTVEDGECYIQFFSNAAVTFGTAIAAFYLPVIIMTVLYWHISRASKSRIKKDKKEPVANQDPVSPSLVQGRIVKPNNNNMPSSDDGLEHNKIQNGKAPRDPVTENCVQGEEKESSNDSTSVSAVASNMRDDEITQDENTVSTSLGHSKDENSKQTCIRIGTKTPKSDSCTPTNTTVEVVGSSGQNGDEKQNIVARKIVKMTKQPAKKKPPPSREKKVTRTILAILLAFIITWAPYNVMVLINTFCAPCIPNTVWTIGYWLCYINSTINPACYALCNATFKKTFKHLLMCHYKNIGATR

[26] = biological target: Vascular endothelial growth factor receptor 2 (Homo sapiens, UniProt P35968); test: Inhibition of KDR (unknown origin) by fluorescence-based microfluidic mobility shift assay
[27] = biological target: Tyrosine-protein kinase Mer (Homo sapiens, UniProt Q12866); test: Inhibition of MERTK (unknown origin) by fluorescence-based microfluidic mobility shift assay
[28] = biological target: Tyrosine-protein kinase receptor UFO (Homo sapiens, UniProt P30530); test: Inhibition of AXL (unknown origin) by fluorescence-based microfluidic mobility shift assay
Cytochrome P450 3A4 = Cytochrome P450 3A4 (Homo sapiens, UniProt P08684); test: Inhibition of CYP3A4 (unknown origin); type: ADME
Sequence of Cytochrome P450 3A4 (P08684 whole entry): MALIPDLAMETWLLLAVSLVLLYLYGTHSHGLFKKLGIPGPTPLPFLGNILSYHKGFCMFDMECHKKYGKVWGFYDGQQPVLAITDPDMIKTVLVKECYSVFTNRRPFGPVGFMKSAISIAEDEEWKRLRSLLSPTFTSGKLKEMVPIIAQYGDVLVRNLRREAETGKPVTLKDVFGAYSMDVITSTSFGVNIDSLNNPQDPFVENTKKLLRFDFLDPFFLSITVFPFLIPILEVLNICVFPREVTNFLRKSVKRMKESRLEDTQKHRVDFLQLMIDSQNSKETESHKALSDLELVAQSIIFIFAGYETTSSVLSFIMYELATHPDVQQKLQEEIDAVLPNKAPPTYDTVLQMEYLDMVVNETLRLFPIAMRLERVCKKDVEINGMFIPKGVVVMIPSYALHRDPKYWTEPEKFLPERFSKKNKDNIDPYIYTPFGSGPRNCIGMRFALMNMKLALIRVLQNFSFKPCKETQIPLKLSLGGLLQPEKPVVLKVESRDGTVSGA

Sequence of 5-hydroxytryptamine receptor 2B (Homo sapiens) (P41595 whole entry): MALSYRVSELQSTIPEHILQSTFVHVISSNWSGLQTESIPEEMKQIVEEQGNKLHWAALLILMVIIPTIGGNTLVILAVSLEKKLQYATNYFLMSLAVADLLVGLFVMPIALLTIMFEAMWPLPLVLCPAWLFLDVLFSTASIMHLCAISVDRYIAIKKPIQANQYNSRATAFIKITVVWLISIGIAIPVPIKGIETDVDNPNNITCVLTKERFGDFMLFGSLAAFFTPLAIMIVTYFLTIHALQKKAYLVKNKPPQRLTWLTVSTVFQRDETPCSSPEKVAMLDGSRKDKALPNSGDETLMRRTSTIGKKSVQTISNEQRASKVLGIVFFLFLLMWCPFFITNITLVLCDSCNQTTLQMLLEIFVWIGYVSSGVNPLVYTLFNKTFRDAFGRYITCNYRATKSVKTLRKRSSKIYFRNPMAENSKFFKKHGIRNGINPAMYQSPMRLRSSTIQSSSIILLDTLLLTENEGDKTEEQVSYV
Sequence of Vascular endothelial growth factor receptor 2 (P35968 whole entry): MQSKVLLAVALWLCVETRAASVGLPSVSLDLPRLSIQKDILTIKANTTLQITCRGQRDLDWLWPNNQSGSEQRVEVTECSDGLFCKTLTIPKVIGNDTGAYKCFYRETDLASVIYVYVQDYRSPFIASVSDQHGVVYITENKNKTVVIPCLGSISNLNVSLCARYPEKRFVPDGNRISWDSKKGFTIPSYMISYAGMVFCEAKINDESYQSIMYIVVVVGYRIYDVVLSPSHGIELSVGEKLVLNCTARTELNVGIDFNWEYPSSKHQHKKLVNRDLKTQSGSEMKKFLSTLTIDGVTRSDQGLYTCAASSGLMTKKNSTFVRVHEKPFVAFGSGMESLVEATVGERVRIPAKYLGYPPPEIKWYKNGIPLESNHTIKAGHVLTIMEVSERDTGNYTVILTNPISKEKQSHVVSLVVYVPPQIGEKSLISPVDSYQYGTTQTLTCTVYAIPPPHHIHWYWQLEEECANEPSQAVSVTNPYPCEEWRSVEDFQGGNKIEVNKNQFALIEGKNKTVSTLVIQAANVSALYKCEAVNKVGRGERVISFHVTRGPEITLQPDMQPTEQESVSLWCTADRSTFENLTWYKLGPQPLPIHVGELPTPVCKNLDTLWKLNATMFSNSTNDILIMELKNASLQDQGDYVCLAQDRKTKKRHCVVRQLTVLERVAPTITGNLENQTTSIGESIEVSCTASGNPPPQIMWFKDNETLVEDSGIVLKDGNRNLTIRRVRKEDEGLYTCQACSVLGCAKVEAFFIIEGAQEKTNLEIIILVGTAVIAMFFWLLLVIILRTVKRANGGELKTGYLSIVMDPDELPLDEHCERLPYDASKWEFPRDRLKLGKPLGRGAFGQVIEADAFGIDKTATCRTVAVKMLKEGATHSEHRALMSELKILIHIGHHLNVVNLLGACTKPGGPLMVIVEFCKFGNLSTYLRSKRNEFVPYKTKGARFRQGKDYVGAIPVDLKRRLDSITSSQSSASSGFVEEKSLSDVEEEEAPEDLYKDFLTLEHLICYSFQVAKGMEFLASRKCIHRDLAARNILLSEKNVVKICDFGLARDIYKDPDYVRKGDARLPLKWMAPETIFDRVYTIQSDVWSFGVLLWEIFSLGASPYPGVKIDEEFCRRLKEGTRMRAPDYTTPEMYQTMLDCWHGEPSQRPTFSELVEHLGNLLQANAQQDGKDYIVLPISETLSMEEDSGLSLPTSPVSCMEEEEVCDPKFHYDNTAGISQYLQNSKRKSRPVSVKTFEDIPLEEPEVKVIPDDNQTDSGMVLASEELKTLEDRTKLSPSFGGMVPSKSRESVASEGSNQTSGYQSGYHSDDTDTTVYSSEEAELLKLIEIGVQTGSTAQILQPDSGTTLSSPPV
Sequence of cGMP-inhibited 3',5'-cyclic phosphodiesterase 3A (Homo sapiens) (Q14432 whole entry): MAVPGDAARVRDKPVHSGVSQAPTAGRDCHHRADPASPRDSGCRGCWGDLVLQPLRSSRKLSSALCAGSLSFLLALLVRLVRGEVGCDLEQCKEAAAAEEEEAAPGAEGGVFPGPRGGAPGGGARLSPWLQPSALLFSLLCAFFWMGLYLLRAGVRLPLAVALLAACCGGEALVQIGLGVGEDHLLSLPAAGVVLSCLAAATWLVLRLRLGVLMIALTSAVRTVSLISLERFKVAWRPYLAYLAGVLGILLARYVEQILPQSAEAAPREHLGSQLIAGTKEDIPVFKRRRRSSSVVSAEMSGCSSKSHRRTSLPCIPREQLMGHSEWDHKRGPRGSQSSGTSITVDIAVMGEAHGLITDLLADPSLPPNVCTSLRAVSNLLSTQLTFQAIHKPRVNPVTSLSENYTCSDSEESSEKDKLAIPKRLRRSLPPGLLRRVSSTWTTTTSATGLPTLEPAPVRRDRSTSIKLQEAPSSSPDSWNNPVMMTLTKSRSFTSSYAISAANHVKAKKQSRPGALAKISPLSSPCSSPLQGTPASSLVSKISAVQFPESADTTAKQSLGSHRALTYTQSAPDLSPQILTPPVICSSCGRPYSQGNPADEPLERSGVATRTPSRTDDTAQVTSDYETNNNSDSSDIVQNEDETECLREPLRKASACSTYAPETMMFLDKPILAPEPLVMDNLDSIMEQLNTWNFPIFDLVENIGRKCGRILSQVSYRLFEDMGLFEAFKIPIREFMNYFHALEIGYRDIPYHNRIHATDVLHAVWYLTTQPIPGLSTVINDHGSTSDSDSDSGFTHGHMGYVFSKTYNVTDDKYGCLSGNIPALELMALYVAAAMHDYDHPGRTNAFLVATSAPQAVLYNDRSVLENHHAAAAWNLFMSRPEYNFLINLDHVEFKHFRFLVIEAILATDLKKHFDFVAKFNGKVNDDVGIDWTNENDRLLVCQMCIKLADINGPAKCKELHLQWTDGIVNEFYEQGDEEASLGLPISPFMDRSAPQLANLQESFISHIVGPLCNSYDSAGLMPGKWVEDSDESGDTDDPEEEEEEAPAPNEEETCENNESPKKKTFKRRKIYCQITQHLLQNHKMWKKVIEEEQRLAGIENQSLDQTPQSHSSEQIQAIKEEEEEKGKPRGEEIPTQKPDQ
Sequence of Tyrosine-protein kinase receptor UFO (P30530 whole entry): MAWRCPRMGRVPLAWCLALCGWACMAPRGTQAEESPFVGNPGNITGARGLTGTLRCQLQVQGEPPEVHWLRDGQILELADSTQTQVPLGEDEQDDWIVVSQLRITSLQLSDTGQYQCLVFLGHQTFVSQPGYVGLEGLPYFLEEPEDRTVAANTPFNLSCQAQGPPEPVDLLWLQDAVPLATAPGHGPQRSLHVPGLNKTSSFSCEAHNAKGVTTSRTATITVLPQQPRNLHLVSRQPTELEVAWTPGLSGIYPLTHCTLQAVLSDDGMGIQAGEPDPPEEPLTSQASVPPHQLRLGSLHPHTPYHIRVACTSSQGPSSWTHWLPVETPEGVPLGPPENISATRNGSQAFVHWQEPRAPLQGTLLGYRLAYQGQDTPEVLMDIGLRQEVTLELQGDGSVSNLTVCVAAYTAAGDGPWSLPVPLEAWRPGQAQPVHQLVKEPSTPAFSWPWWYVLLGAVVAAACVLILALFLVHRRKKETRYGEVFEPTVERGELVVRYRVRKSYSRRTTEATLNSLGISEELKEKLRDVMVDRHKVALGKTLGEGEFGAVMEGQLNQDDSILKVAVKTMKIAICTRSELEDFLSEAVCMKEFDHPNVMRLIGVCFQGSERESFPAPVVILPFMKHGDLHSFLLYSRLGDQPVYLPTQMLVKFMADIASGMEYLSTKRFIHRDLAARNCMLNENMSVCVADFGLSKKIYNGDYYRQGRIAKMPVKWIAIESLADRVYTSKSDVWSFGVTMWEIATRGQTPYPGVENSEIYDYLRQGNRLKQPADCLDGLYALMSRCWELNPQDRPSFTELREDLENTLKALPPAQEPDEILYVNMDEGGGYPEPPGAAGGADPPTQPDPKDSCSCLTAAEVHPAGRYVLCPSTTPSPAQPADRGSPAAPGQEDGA
Sequence of Sodium-dependent serotonin transporter (Homo sapiens) (P31645 whole entry, looked up): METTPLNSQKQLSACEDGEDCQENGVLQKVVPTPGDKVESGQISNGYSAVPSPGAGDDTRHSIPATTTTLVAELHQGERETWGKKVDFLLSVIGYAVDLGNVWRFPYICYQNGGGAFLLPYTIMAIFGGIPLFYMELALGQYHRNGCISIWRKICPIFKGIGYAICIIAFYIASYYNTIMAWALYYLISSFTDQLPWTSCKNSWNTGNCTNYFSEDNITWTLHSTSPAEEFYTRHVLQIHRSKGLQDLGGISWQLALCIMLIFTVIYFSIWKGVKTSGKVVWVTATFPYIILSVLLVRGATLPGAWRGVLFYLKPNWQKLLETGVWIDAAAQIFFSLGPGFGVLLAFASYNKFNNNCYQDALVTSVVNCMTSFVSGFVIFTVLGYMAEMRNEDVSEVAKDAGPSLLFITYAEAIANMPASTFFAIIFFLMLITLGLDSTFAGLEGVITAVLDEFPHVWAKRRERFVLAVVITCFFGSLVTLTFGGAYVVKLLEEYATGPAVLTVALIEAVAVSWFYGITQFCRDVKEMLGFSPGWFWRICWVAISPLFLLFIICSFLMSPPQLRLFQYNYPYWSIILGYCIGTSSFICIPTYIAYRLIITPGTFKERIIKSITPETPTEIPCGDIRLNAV

Structure (SMILES) | EC50 (BaF3 [1]) [nM] | EC50 (BaF3 [2]) [nM] | EC50 (cells) [nM] | EC50 (BaF3 [3]) [nM] | EC50 (BaF3 [4]) [nM] | solubility kinetic [5] [µM] | EC50 (BaF3 [6]) [nM] | EC50 (BaF3 [7]) [nM] | EC50 (BaF3 [8]) [nM] | EC50 (BaF3 [9]) [nM] | EC50 (BaF3 [10]) [nM] | EC50 (BaF3 [11]) [nM] | solubility kinetic [12] [µM] | EC50 (BaF3 [13]) [nM] | EC50 (BaF3 [14]) [nM] | EC50 (BaF3 [15]) [nM] | EC50 (BaF3 [16]) [nM] | other results
CN1CCC(COc2cnc(-c3cccc(Cn4nc(-c5cccc(C#N)c5)ccc4=O)c3)nc2)CC1 [TEPOTINIB] | 1910 | 3040 | 6.4 | 2210 | 123 | 48 (≈ 23.6 µg/mL) | 24 | 122 | 4.2 | 2.3 | 3410 | 2810 | 295 (≈ 145 µg/mL) | 3440 | 183 | 1820 | 0.6 | 
C[C@@H](c1ccc2nccn2c1)n1nnc2ncc(-c3cnn(C)c3)nc21 [SAVOLITINIB] |  | > 10000 |  | > 10000 | 73 |  | 8.4 | 74 | 1.5 | 0.5 | > 10000 | > 10000 |  | > 10000 | 13 | 7400 | 0.5 | 
COc1cc2nccc(Oc3ccc(NC(=O)C4(C(=O)Nc5ccc(F)cc5)CC4)cc3)c2cc1OC [CABOZANTINIB] |  |  |  |  |  | 5.2 (≈ 2.61 µg/mL) |  |  |  |  |  |  | 21 (≈ 10.5 µg/mL) |  |  |  |  | 
CNCCOc1cc2nccc(Oc3c(F)cc(NC(=O)c4cnccc4OC)cc3F)c2cc1OC | 41 |  | 59 |  |  | 208 (≈ 106 µg/mL) |  |  |  |  |  |  | 276 (≈ 141 µg/mL) |  |  |  |  | inhibition [17]: 54%; inhibition [18]: 58%; inhibition (Homo sapiens): 89%; inhibition [19]: 11%; inhibition at 10 µM (L-type calcium channel): 41%; inhibition at 10 µM (hERG): 70%; inhibition [20]: 54%; bioavailability [21]: < 5%; clearance [22]: 43 mL/min/kg; inhibition [23]: 101%; inhibition [24]: -2%; inhibition [25]: 3%
Cc1ccc(C(=O)Nc2ccc(Oc3cc4cnn(C)c4cc3-c3cn[nH]c3)c(F)c2)c(=O)n1-c1ccc(F)cc1 [MERESTINIB] | 116 | 129 | 25 | 23 | 203 | 0.08 (≈ 0.0442 µg/mL) | 511 | 837 | 249 | 21 | 26 | 18 | 0.4 (≈ 0.221 µg/mL) | 255 | 64 | 91 | 7.8 | IC50 [26]: 341 nM; IC50 [27]: 0.5 nM; IC50 [28]: 0.5 nM
COc1cc2nccc(Oc3ccc(NC(=O)c4ccncc4OC)cc3F)c2cc1OC |  |  |  |  |  |  |  |  |  |  |  |  |  |  |  |  |  | IC50 (Cytochrome P450 3A4): 300 nM
